System: P. aeruginosa
Experiment: Serial passage assay (acquisition of drug resistance)
Assay type: cell-based, Pseudomonas aeruginosa
Conditions: sub-MBC treatment
Procedure: For the PI uptake assay, bacteria were cultured in the mid-log phase and diluted to 5 × 10^5 CFU/mL in PBS (pH 7.4). The peptides were treated with 40 μg/mL for 10 min, and then 10 μM PI was added and incubated for 20 min. The PI fluorescence was measured with a flow cytometric assay using a FACS Canto II (BD Biosciences, CA, USA), and the data were analyzed using FlowJo software (Tree Star, Ashland, OR, USA). NPN uptake and a membrane depolarization assay were performed as previously described, with some changes. Briefly, 1 × 10^4 CFU/mL of bacteria were place on a 96-well plate, and then 10 μM NPN or 4 μM DiSC3(5) was added, and AMPR-22 was administered. The fluorescence signal was measured for 10 min using a SpectraMax Plus 384 microplate reader (Molecular Devices, San Jose, CA, USA). For the NPN uptake assay, AMPR-22 was administered 3 min after the start of the fluorescence measurements. The ATP leakage assay was performed using a BacTiter-glo™ kit (Promega, Madison, WI, USA) and the manufacturer’s instructions with minor modifications. […] The luminescence signal was measured using a SpectraMax Plus 384 microplate reader (Molecular Devices, San Jose, CA, USA). […] Sub-MBC concentrations of peptide were administered to 1 mL of cultured cells, and then the MBC values were determined for every passage. […]

In the case of `CNC(C)C1CCC(N)C(OC2C(N)CC(N)C(OC3OCC(C)(O)C(NC)C3O)C2O)O1` (centres unmarked) [gentamicin], the “Passages after which resistance developed” value is reported as “nine” and the “Increase of the modified MBC value after 30 passages” value (30 passages) is reported as 64 fold.
